Source: patent US20050239808A1, “Active substances for the treatment, diagnosis and prophylaxis of diseases in which abnormal protein structures occur” (priority 2002, published 2005)

Columns and labels:
[1] = Solubility of aminopyrazoles in DMSO and after dilution in sodium phosphate buffer
Method: These aminopyrazoles were dissolved in 100% DMSO. […] In order to eliminate particles, these dissolved solutions of aminopyrazoles were resolved in 10 mM of sodium phosphate buffer pH 7.2 to a final DMSO concentration of 5%. They were then filtered with Microcon YM 10 tubes.

[2] = molecular target: T1, Aβ(1-42) (Homo sapiens, UniProt P05067); type: biochemical; details: FIG. 10; 32.8 μM and 16.4 μM Aβ(1-42), 20 mM AmpOx, 6 h at room temperature, 6% DMSO, 100,000 g centrifugation
T1 construct: Aβ(1-42) was used as the model molecule in the aggregation experiments
T1 sequence (P05067 672-713 limits assumed): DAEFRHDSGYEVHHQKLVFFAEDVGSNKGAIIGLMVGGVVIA
Method: Aβ(1-42) solutions were incubated under various conditions and their aggregation was analysed by a 100,000 g spin in an ultracentrifuge.
The Aβ(1-42) dissolved in 100% DMSO was diluted to a concentration of 11 μM in 10 mM of sodium phosphate buffer pH 7.2. All samples contained 22 nM of oregon green labelled Aβ(1-42) and were incubated for 48 hours at room temperature in 10% DMSO.
Aβ(1-42) was dissolved in 100% DMSO and diluted to a concentration of 32.8 μM and 16.4 μM in 10 mM of sodium phosphate buffer pH 7.2. The protein was incubated at room temperature for 6 h in 6% DMSO with and without 20 mM AmpOx.

[3] = molecular target: T1, Aβ(1-42); experiment: Aβ(1-42) aggregation assay by Fluorescence Correlation Spectroscopy (FCS); type: biochemical; details: 5.5-11 μM Aβ(1-42) + 22 nM oregon green-labelled Aβ(1-42), 10 nM of aminopyrazole (referring to the initial solution), 5-10% DMSO, 10 mM sodium phosphate buffer pH 7.2, room temperature, 12-72 hours

SMILES	solubility in 100% DMSO [1]	distribution of Aβ(1-42) between supernatant (S) and pellet (P), compared with the Trimer result [2]	inhibition of Aβ(1-42) aggregation [3]
Cc1cc(NC(=O)C(=O)Nc2cc(C)[nH]n2)n[nH]1 [AmpOx, N,N′-Bis-(−5-methyl-1H-pyrazole-3-yl)-oxalic acid diamide]	not completely soluble	almost identical results	able to disturb or inhibit the aggregation of Aβ(1-42)
COC(=O)c1cc(NC(=O)c2cc(NC(=O)c3cc([N+](=O)[O-])[nH]n3)[nH]n2)[nH]n1 [Trimer]			able to disturb or inhibit the aggregation of Aβ(1-42)
